In patent US8242159B2, “1,3-dihydro-5-isobenzofurancarbonitrile derivatives and pharmaceutical composition thereof for the treatment of premature ejaculation” (Dong-A Pharmaceutical. Co., Ltd, priority 2007, dated 2012):

Key:
[1] = system: Male Wistar rats; assay: p-PCA-induced ejaculation in anesthetized rats (ejaculation-delaying effect); type: in vivo, rat; settings: for Ratio: Number of responding animals/total animal number: 50 mg/kg oral in 1% HPMC, p-PCA 5 mg/kg i.p. 80 min later, observed 30 min; for Latency: Time to display the ejaculatory response: 50 mg/kg oral, p-PCA 5 mg/kg i.p., mean ± standard deviation of responding rats
Description: The compounds prepared in the above examples were evaluated to determine whether they have an effect of delaying ejaculation. The evaluation was carried out using an animal model according to a method described in Yonezawa et al., Life Sci. 2000, 67(25) p 3031-9. Male Wistar rats weighing 240-260 g were used. Each compound was suspended in 1% HPMC, and then administered orally to each animal. After 60 min, the animals were anesthetized and fixed. 20 min later, para-chloroamphetamine (p-PCA) was intraperitoneally administered in a dose of 5 mg/kg in order to induce ejaculation. […] An ejaculatory response was considered to be elicited when rhythmic contraction of bulbocavernosus muscles and semen discharge occurs. Six or more animals were used for each compound. A Fisher's […] test was performed for the comparison of the proportion of responding rats (ejaculated rats) to determine significance of difference between a treatment group and a vehicle control. The time to reach ejaculation was expressed as mean±standard deviation.
Each test compound was administered at a dose of 50 mg/kg. Ejaculation was elicited in all seven animals of a control group.

[2] = Determination of half-lives of the compounds in rats (oral, plasma HPLC); type: in vivo; settings: rat, male Sprague-Dawley rats, 10 mg/kg (text also says 5 mg/kg), 0.5% methylcellulose
Description: The half-lives of present compounds were determined as follows. Each compound was administered orally to male Sprague-Dawley rats weighing approximately 270 g at a dose of 10 mg/kg. 5 mg/kg of each compound was suspended in 0.5% methyl-cellulose and then administered to rats. Blood samples were collected 0.017, 0.083, 0.25, 0.5, 1, 2, 3, 5, 7 and 24 hours after administration, and centrifuged at 1,000 rpm for 3 min to separate plasma. The concentration of each compound in plasma was determined using high performance liquid chromatography, which was performed with a mobile phase of 10 mM ammonium formate (pH 3.0) and acetonitrile (50:50), an […] column (21×100 mm, 3 μm) and a flow rate of 0.2 ml/min.

[3] = molecular target: T1, 5HT1A receptor (Homo sapiens, UniProt P08908); assay: Radioligand competitive binding assay; settings: human-derived recombinant CHO cells
T1 construct: expressed in transfected cells; host or cells: CHO cells
T1 sequence (P08908 1-422): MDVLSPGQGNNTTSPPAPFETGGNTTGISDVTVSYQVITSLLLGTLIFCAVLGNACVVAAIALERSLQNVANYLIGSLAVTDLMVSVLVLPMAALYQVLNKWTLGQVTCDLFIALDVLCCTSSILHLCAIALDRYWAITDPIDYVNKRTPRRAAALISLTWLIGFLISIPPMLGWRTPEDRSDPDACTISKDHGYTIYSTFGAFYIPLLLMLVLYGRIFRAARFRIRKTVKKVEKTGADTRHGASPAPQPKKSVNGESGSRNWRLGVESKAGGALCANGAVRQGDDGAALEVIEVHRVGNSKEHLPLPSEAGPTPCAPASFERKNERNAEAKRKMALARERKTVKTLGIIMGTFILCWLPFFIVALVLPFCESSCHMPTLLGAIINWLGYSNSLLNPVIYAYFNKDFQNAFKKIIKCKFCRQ
Description: (§1) In addition, ligand binding to 5HT1A, 5-HT1B and 5-HT2C receptors and 5-HT transporter was evaluated with human-derived recombinant CHO cells, Wistar rat-derived cerebral cortical cells, human-derived recombinant CHO-K1 cells, and human-derived recombinant HEK-293 cells. Each cell line was dosed with 10^−5 μM to 10^4 μM of the compounds of Examples 2, 35, 40 and 45, and then incubated with a radio-labeled ligand for competitive binding. Ligands used were […], [^125I]Cyanopindolol, [^3H]Mesulergine and [^3H]Paroxetine, respectively. The competitive binding assay was carried out in 50 mM Tris-HCl buffer at 25° C. or 37° C., for 60 to 90 min.

[4] = molecular target: T2, 5-HT1B receptor (Rattus norvegicus, UniProt P28564); assay: Radioligand competitive binding assay, [125I]Cyanopindolol; settings: Wistar rat-derived cerebral cortical cells
T2 construct: Wistar rat-derived cerebral cortical cells; from tissue; host or cells: Wistar rat cerebral cortex
T2 sequence (P28564 whole entry): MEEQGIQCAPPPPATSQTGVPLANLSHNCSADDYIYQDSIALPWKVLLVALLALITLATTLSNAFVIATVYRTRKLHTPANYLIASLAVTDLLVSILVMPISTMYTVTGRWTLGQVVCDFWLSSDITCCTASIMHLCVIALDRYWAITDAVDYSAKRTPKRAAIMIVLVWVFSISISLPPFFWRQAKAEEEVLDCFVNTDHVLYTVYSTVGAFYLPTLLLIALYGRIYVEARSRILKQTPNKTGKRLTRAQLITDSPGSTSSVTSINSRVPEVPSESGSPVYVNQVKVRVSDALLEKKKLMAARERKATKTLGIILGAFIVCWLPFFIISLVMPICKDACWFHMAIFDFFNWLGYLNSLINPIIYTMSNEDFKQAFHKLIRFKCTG
Description: as §1

[5] = molecular target: T3, 5-HT2C receptor (Homo sapiens, UniProt P28335); assay: Radioligand competitive binding assay, [3H]Mesulergine; settings: human-derived recombinant CHO-K1 cells
T3 construct: expressed in transfected cells; host or cells: CHO-K1 cells
T3 sequence (P28335 33-458): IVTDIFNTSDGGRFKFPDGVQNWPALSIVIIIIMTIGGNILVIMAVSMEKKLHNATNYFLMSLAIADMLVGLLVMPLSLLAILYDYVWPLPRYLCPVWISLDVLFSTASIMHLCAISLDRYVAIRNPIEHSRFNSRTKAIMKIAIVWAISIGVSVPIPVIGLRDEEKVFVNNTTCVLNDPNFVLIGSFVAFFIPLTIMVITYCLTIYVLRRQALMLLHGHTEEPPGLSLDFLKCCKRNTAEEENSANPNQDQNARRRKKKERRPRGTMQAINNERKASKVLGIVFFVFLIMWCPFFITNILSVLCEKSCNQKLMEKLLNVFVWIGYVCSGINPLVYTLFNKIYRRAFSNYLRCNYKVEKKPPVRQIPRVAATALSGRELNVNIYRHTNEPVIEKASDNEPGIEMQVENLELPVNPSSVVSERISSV
Description: as §1

[6] = molecular target: T4, 5-HT transporter (Homo sapiens, UniProt P31645); assay: Radioligand competitive binding assay, [3H]Paroxetine; settings: human-derived recombinant HEK-293 cells
T4 construct: expressed in transfected cells; host or cells: HEK-293 cells
T4 sequence (P31645 whole entry): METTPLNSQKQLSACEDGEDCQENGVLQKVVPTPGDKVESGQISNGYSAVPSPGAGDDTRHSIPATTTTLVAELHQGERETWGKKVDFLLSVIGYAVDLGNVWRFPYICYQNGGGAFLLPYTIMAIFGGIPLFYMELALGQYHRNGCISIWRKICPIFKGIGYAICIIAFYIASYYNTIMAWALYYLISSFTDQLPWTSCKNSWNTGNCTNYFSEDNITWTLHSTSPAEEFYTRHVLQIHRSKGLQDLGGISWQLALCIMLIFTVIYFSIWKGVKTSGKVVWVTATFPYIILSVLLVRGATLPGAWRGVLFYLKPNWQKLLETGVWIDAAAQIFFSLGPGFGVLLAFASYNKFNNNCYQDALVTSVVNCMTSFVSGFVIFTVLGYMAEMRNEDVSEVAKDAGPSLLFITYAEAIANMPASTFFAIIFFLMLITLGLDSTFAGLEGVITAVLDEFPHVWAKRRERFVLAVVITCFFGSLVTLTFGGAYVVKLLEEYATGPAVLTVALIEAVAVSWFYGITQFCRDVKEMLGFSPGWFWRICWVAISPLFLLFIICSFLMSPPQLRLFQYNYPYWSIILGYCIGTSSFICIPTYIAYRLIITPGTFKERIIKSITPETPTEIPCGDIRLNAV
Description: as §1

[7] = system: cellular uptake of dopamine; assay: Cellular reuptake assay, [3H]dopamine; type: cell-based; settings: 10 min, CHO-1 cell line
Description: (§2) First, the effects of the present compounds on cellular uptake of dopamine, norepinephrine and serotonin were evaluated with human-derived CHO-1, MDCK and HEK-293 cell lines. Each cell line was dosed with 10^−5 μM to 10^4 μM of the compounds of Examples 2, 35, 40 and 45, and then incubated with [^3H]dopamine, [^3H]norepinephrine and [^3H]serotonin in buffer. After 10 min, the amount of each neurotransmitter taken up into cells was determined by counting radioactivity using a liquid scintillation counter (LSC).

[8] = system: cellular uptake of norepinephrine; assay: Cellular reuptake assay, [3H]norepinephrine; type: cell-based; settings: 10 min, MDCK cell line
Description: as §2

[9] = system: cellular uptake of serotonin; assay: Cellular reuptake assay, [3H]serotonin; type: cell-based; settings: Homo sapiens, HEK293, 10 min, HEK-293 cell line
Description: as §2

[10] = system: Sprague-Dawley (SD) rats; assay: Acute toxicity test, single dose, mortality; type: in vivo, rat
Text: The present derivatives and citalopram were individually administered orally and intra-venously to SD rats at a single dose.

[11] = molecular target: hERG (human Ether-a-go-go Related Gene) (Homo sapiens, UniProt Q12809); assay: Cardiotoxicity test, hERG assay (MDS Pharma)
hERG (human Ether-a-go-go Related Gene), sequence (Q12809 whole entry): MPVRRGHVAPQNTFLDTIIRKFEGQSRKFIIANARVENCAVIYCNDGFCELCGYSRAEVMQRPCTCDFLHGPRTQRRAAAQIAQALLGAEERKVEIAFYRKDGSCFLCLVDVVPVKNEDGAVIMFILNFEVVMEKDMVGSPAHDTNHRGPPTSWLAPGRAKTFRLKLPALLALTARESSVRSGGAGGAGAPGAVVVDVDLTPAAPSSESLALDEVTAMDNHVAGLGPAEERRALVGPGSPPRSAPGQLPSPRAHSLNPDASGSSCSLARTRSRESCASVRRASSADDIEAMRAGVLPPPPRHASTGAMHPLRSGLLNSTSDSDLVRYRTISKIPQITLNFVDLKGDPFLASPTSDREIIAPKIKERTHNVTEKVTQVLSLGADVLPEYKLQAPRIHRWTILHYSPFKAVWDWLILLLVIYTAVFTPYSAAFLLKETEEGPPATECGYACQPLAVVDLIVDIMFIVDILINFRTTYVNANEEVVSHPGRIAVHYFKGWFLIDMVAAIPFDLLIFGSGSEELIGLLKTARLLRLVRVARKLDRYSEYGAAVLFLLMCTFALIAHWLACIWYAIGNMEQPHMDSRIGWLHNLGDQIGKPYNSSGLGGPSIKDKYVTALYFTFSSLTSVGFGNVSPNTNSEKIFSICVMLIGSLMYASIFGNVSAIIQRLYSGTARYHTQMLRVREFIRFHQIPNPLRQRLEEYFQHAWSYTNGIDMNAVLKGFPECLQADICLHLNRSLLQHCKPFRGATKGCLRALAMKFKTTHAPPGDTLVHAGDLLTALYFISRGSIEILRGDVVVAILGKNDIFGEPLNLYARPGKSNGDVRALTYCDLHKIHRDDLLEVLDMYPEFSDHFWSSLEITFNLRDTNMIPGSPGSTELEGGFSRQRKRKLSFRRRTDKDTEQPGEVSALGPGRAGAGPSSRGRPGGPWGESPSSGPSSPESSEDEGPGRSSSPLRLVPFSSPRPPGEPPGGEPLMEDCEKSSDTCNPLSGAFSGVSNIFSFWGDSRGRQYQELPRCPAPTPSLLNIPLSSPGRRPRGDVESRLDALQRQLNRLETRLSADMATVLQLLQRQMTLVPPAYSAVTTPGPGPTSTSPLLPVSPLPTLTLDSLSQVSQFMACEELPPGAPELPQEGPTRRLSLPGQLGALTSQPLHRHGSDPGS
Text: To evaluate the safety of the present derivatives in comparison with control drug, conducted was hERG (human Ether-a-go-go Related Gene) assay which is a representative test of safety medical test. This test was requested to trial institute MDS Pharma., which conducted this test.

[12] = system: Salmonella typhimurium TA98, 100, 1535, 1537, E. coli WP2 uvrA; assay: Mutagenicity test: Ames test; type: cell-based; settings: 8, 40, 200, 1000, 2500, 5000 μg/plate, presence/absence of a metabolic activation system
Description: (§3) To evaluate the safety of the present derivatives, mutagenicity test was conducted. Ames test and chromosome aberration test were conducted with the examples 2, 35, 40 and 45.

[13] = system: CHL (Chinese Hamster Lung) cell; assay: Mutagenicity test: chromosome aberration test; type: cell-based; settings: 75, 150, 300 μg/ml with metabolic activation; 20, 40, 80 μg/ml without
Description: as §3

Compound	Ratio: Number of responding animals/total animal number [1]	Latency: Time to display the ejaculatory response [1]	also measured
COc1ccc(C2(CCCN(C)C)OCc3cc(C#N)ccc32)cc1.O=C(O)C(=O)O (centres unmarked) [Ex. 2, 1-{3-(dimethylamino)propyl}-1-(4-methoxyphenyl)-1,3-dihydro-5-isobenzofurancarbonitrile oxalate]	0/9	–	Tmax [2]: 19.8 min; half-life [2]: 76.8 min; IC50 [3]: 805 µM; IC50 [4]: > 1000 µM; IC50 [5]: 7.12 µM; IC50 [6]: < 0.0001 µM; IC50 [7]: 85.7 µM; IC50 [8]: 36.5 µM; IC50 [9]: 0.304 µM; minimum lethal dose ([10]; Intravenously, female SD rats): 70; minimum lethal dose ([10]; Intravenously, male SD rats): 70; minimum lethal dose ([10]; Orally, female SD rats): 1000; minimum lethal dose ([10]; Orally, male SD rats): 1000; IC50 [11]: 19.4 µM; Ames test result [12]: negative; chromosome aberration test result [13]: negative
COc1ccc(C2(CCCn3ccnc3)OCc3cc(C#N)ccc32)cc1.Cl (centres unmarked) [Ex. 5, 1-{13-(imidazole-1-yl)propyl}-1-(4-methoxyphenyl)-1,3-dihydro-5-isobenzofurancarbonitrile hydrochloride]	3/7	986 ± 342 s	–
CN(C)CCC1(c2ccccc2)OCc2cc(C#N)ccc21 (centres unmarked) [Ex. 14, 1-{2-(dimethylamino)ethyl}-1-phenyl-1,3-dihydro-5-isobenzofurancarbonitrile]	3/7	1032 ± 451 s	–
Cc1ccc(C2(CCCn3cccn3)OCc3cc(C#N)ccc32)cc1.Cl (centres unmarked) [Ex. 31, 1-{3-(pyrazole-1-yl)propyl}-1-(4-tolyl)-1,3-dihydro-5-isobenzofurancarbonitrile hydrochloride]	3/9	754 ± 401 s	–
Cl.N#Cc1ccc2c(c1)COC2(CCn1cccn1)c1ccc(Cl)cc1 (centres unmarked) [Ex. 68, 1-(4-chlorophenyl)-1-{2-(pyrazole-1-yl)ethyl}-1,3-dihydro-5-isobenzofurancarbonitrile hydrochloride]	4/9	908 ± 274 s	–
Cc1ccc(C2(CCCn3ccnc3)OCc3cc(C#N)ccc32)cc1 (centres unmarked) [Ex. 26, 1-{3-(imidazole-1-yl)propyl}-1-(4-tolyl)-1,3-dihydro-5-isobenzofurancarbonitrile]	4/7	904 ± 304 s	–
COc1ccc(C2(CCCn3cccn3)OCc3cc(C#N)ccc32)cc1.Cl (centres unmarked) [Ex. 9, 1-(4-methoxyphenyl)-1-{3-(pyrazole-1-yl)propyl}-1,3-dihydro-5-isobenzofurancarbonitrile hydrochloride]	4/7	950 ± 245 s	–
Cl.N#Cc1ccc2c(c1)COC2(CCn1ccnc1)c1cccs1 (centres unmarked) [Ex. 48, 1-{2-(imidazole-1-yl)ethyl}-1-(2-thienyl)-1,3-dihydro-5-isobenzofurancarbonitrile hydrochloride]	3/7	904 ± 321 s	–
CN(C)CCC1(c2cccs2)OCc2cc(C#N)ccc21 (centres unmarked) [Ex. 42, 1-{2-(dimethylamino)ethyl}-1-(2-thienyl)-1,3-dihydro-5-isobenzofurancarbonitrile]	4/9	906 ± 275 s	–
Cc1ccc(C2(CCn3ccnc3)OCc3cc(C#N)ccc32)cc1 (centres unmarked) [Ex. 28, 1-{2-(imidazole-1-yl)ethyl}-1-(4-tolyl)-1,3-dihydro-5-isobenzofurancarbonitrile]	3/7	734 ± 451 s	–
